Substitutions are numbered along the chain they refer to. Like-named read-outs stand apart in the source and are kept apart here.
Key:
RIG-I = target: T1, RIG-I (Homo sapiens, UniProt O95786); experiment: MANT-nucleotide binding, tryptophan fluorescence FRET; settings: absence of RNA; full-length His-RIG-I; n = 4; read-out: Affinity (KD) to RIG-I
T1 construct: Recombinant full-length human RIG-I or RIG-I single amino acid mutants (1–925, N-terminal His-tag); made in house; host or cells: High Five (Trichoplusia ni) insect cells, baculovirus, pFBDM vector
T1 sequence (O95786 1-925): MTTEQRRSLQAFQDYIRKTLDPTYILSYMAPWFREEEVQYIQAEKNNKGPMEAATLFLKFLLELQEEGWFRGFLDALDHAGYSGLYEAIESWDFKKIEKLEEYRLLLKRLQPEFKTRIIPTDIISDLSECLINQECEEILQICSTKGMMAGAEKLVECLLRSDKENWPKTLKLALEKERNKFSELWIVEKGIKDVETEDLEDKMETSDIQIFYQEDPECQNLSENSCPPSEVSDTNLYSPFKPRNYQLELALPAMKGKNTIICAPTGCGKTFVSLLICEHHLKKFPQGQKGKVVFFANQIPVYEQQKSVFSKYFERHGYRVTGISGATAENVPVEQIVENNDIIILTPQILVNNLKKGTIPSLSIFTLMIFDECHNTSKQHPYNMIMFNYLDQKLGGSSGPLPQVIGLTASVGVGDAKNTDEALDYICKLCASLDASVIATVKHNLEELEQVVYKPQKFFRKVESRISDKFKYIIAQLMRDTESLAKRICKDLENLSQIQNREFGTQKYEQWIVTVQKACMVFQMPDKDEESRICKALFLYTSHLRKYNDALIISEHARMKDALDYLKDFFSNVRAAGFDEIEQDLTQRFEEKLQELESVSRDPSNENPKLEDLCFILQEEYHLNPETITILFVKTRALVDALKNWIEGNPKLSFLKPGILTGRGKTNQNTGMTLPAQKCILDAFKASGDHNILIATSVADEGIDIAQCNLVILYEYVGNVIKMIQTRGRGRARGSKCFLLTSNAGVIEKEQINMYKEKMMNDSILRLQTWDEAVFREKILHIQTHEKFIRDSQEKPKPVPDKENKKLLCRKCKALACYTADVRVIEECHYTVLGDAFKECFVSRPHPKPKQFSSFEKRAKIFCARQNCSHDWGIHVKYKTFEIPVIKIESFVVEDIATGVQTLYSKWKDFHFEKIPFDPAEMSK
Experimental: (§1) Binding of MANT-ATP and MANT-ATPγS to different full-length RIG-I mutants (1–925, N-terminal His-tag) was determined via Förster resonance energy transfer from RIG-I to MANT-ATP (Jena Bioscience, Jena, Germany). […] Fluorescence of MANT-ATP was measured in a TECAN M1000 microplate reader at λex/em = 290/448 nm, gain = 170 using an average of five reads per well. Assays were performed four times in independent experiments using the same protein purification batch. For determination of affinities fluorescence values were fitted to Equation (1) using R, where y is the fluorescence, [P] is the protein concentration, Bmax is the maximal fluorescence and KD is the dissociation constant. Fitting was performed globally on all available datasets. Representative values in figures are mean values ± SD.

RIG-I E373Q = target: T2, RIG-I E373Q (Homo sapiens, UniProt O95786, E373Q); experiment: as above; settings: n = 4
T2 construct: different full-length RIG-I mutants (1–925, N-terminal His-tag); made in house; host or cells: High Five (Trichoplusia ni) insect cells, baculovirus, pFBDM vector
T2 sequence (O95786 1-925 E373Q): T1 sequence (O95786 1-925) with E373Q
Experimental: as §1

Kd (RIG-I): 72 ± 13 µM
Kd (RIG-I E373Q; absence of RNA, read-out: Affinity (KD) to RIG-I E373Q): 72 ± 13 µM
Kd (RIG-I E373Q; presence of equimolar 14mer dsRNA, read-out: Affinity (KD) to RIG-I E373Q + RNA): 28 ± 5 µM
Substance: MANT-ATP

— PMC6086658, “Unified mechanisms for self-RNA recognition by RIG-I Singleton-Merten syndrome variants” (eLife, 2018)
